Like-named read-outs stand apart in the source and are kept apart here.
Experiments:
TYK2 JH2 = target: T1, TYK2 JH2 (Homo sapiens, UniProt P29597); assay: TYK2 JH2 binding assay (KINOMEscan KdELECT competitive binding); conditions: TYK2 JH2 domain
T1 construct: purchased DiscoverX (KINOMEscan KdELECT service); host or cells: E. coli BL21-derived (T7 phage display) or HEK-293
In short: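 Kd values come from qPCR measurement of kinase retained on an immobilized-ligand resin after 1 h room-temperature competition with compound in an 11-point, 3-fold series.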

[1] = tested on: JAK1/TYK2 pSTAT5 (Tyr694/699) in THP-1 cell line; assay: IFNa-stimulated JAK1/TYK2 pSTAT5 (Tyr694/699) inhibition cellular assay, AlphaLISA; assay type: cell-based; conditions: Homo sapiens, THP-1 cells, AlphaLISA (Assay B)
In short: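 THP-1, 2e4 cells/well, HBSS; cpd 1 h 37 °C (10000–0.04 nM final, 6-fold, 8 pt); IFNa 100 ng/mL added, 30 min; lyse, freeze −80 °C; pSTAT5 AlphaLISA, 615 nm; 4PL IC50, bottom fixed 0, slope −1.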

[2] = KINOMEscan KdELECT (Assay A), read-out: Biochemical TYK2_DiscoverX_JH2_BND_Kd
[3] = IFNa-stimulated pSTAT5 (Tyr694/699), read-out: Cellular_THP1_IFNa-pSTATS_TYK2
[4] = DiscoverX KINOMEscan KdELECT (Assay A), read-out: Biochemical TYK2_DiscoverX_JH2_BND_Kd
[5] = IFNa-stimulated, read-out: Cellular_THP1_IFNa-pSTATS_TYK2
[6] = KINOMEscan KdELECT (Assay A), read-out: Biochemical TYK2_JH2_Kd
[7] = IFNa-stimulated, read-out: Cellular THP1_IFNa-pSTATS_IC50

T1 sequence (P29597 589-875 limits assumed): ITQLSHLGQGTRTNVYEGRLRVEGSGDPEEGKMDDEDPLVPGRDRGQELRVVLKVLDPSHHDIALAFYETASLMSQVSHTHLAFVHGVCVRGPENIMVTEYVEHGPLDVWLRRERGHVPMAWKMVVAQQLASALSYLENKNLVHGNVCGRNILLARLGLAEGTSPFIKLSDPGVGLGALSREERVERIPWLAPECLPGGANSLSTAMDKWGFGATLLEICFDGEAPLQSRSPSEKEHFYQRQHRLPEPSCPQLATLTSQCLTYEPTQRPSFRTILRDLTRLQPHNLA

Structure (SMILES)	Kd (TYK2 JH2; [2]) [nM]	IC50 [1, 5] [nM]	other results
CNc1ncc(-c2nc3ccc(C(F)F)cn3n2)c2cc(NC(=O)C3CC3)ncc12 [Example 1040]	≤ 100		IC50 [1, 3]: ≤ 500 nM
CNc1ncc(-c2nc3cc(OC4CCOC4)ccc3o2)c2cc(NC(=O)C3CC3)ncc12 (stereo not drawn) [Example 229, N-(8-(methylamino)-5-(5-((tetrahydrofuran-3-yl)oxy)benzo[d]oxazol-2-yl)-2,7-naphthyridin-3-yl)cyclopropanecarboxamide]		≤ 500	Kd (TYK2 JH2; [4]): ≤ 100 nM
CNc1ncc(-c2ccccc2S(C)(=O)=O)c2cc(NC(=O)C3CC3)ncc12 [Example 48, N-(8-(methylamino)-5-(2-(methylsulfonyl)phenyl)-2,7-naphthyridin-3-yl)cyclopropanecarboxamide]			Kd (TYK2 JH2; [6]): 1000 to 10000 nM; IC50 [1, 7]: > 500 nM
CC[C@@H]1CN(c2ccc3nc(-c4cnc(NC)c5cnc(NC(=O)[C@H]6C[C@H]6C)cc45)nn3c2)CCO1 (single isomer, unassigned) [Example 1078]	≤ 100		IC50 [1, 3]: ≤ 500 nM
CNc1ncc(C#Cc2ccc(C(C)(F)F)cn2)c2cc(NC(=O)C3CC3)ncc12 [Example 729, N-(5-((5-(1,1-difluoroethyl)pyridin-2-yl)ethynyl)-8-(methylamino)-2,7-naphthyridin-3-yl)cyclopropanecarboxamide]	≤ 100	≤ 500	
CNc1ncc(C#Cc2cnc3cccnn23)c2cc(NC(=O)C3CC3)ncc12 [Example 611, N-(5-(imidazo[1,2-b]pyridazin-3-ylethynyl)-8-(methylamino)-2,7-naphthyridin-3-yl)cyclopropanecarboxamide]	≤ 100	≤ 500	
CNc1ncc(-c2nc3cc(N4CCO[C@H](C)C4)ccc3o2)c2cc(Nc3ccccn3)ncc12 [Example 420, (R)—N^1-methyl-4-(5-(2-methylmorpholino)benzo[d]oxazol-2-yl)-N^6-(pyridin-2-yl)-2,7-naphthyridine-1,6-diamine]		≤ 500	Kd (TYK2 JH2; [4]): ≤ 100 nM
CNc1ncc(-c2nc3ccc(N4CCOCC4)cn3n2)c2cc(NC(=O)[C@H]3CC3(F)F)ncc12 (single isomer, unassigned) [Example 1141]	≤ 100		IC50 [1, 3]: ≤ 500 nM
CNc1ncc(C#Cc2ccc3c(c2)OCCO3)c2cc(NC(=O)C3CC3)ncc12 [Example 894, N-(5-((2,3-dihydrobenzo[b][1,4]dioxin-6-yl)ethynyl)-8-(methylamino)-2,7-naphthyridin-3-yl)cyclopropanecarboxamide]	≤ 100	≤ 500	
CNc1ncc(C#Cc2cn(C)c(C(F)(F)F)n2)c2cc(NC(=O)C3CC3)ncc12 [Example 897, N-(5-((1-methyl-2-(trifluoromethyl)-1H-imidazol-4-yl)ethynyl)-8-(methylamino)-2,7-naphthyridin-3-yl)cyclopropanecarboxamide]	≤ 100	≤ 500	
CNc1ncc(-c2nc3ccc(N4CCOCC4)cn3n2)c2cc(NC(=O)C3(C)CC3)ncc12 [Example 526, 1-methyl-N-(8-(methylamino)-5-(6-morpholino-[1,2,4]triazolo[1,5-a]pyridin-2-yl)-2,7-naphthyridin-3-yl)cycloproapne-1-carboxamide]		≤ 500	Kd (TYK2 JH2; [4]): ≤ 100 nM
CNc1ncc(C#Cc2ccc(Oc3cn(C)cn3)cc2)c2cc(NC(=O)C3CC3)ncc12 [Example 986, N-[8-(methylamino)-5-[2-[4-(1-methylimidazol-4-yl)oxyphenyl]ethynyl]-2,7-naphthyridin-3-yl]cyclopropanecarobxmaide]	≤ 100	≤ 500	
CNc1ncc(-c2ccc(F)cc2)c2cc(NC(=O)C3CC3)ncc12 [Example 18, N-(5-(4-fluorophenyl)-8-(methylamino)-2,7-naphthyridin-3-yl)cyclopropanecarboxamide]			Kd (TYK2 JH2; [6]): ≤ 100 nM; IC50 [1, 7]: > 500 nM
CNc1ncc(C#Cc2cnccn2)c2cc(NC(=O)C3CC3)ncc12 [Example 632, N-(8-(methylamino)-5-(pyrazin-2-ylethynyl)-2,7-naphthyridin-3-yl)cyclopropanecarboxamide]	≤ 100	≤ 500	
CNc1ncc(-c2nc3cc(N4CCOCC4=O)ccc3o2)c2cc(NC(=O)C3CC3)ncc12 [Example 929, N-(8-(methylamino)-5-(5-(3-oxomorpholino)benzo[d]oxazol-2-yl)-2,7-naphthyridin-3-yl)cyclopropanecarboxamide]	≤ 100	≤ 500	
CNc1ncc(C#Cc2ccc3nnn(C)c3c2)c2cc(NC(=O)C3(F)CC3)ncc12 [Example 759, 1-fluoro-N-(5-((1-methyl-1H-benzo[d][1,2,3]triazol-6-yl)ethynyl)-8-(methylamino)-2,7-naphthyridin-3-yl)cyclopropane-1-carboxamide]	≤ 100	> 500	
[2H]C([2H])(C)Nc1ncc(-c2nc3ccc(N4CCOCC4)cn3n2)c2cc(NC(=O)C3CC3)ncc12 [Example 1096, N-(8-((ethyl-1,1-d2)amino)-5-(6-morpholino-[1,2,4]triazolo[1,5-a]pyridin-2-yl)-2,7-naphthyridin-3-yl)cyclopropanecarboxamide]	≤ 100		IC50 [1, 3]: ≤ 500 nM
CNc1ncc(C#Cc2ccc3nc(COC)sc3c2)c2cc(NC(=O)C3CC3)ncc12 [Example 725, N-(5-((2-(methoxymethyl)benzo[d]thiazol-6-yl)ethynyl)-8-(methylamino)-2,7-naphthyridin-3-yl)cyclopropanecarboxamide]	≤ 100	≤ 500	
CNc1ncc(-c2nc3cc(N4CCOC(C)(C)C4)ccc3o2)c2cc(NC(=O)C3CC3)ncc12 [Example 317, N-(5-(5-(2,2-dimethylmorpholino)benzo[d]oxazol-2-yl)-8-(methylamino)-2,7-naphthyridin-3-yl)cyclopropanecarboxamide]		≤ 500	Kd (TYK2 JH2; [4]): ≤ 100 nM
CNc1ncc(C#Cc2ccc(OC3(C)COC3)cc2)c2cc(NC(=O)C3CC3)ncc12 [Example 706, N-(8-(methylamino)-5-((4-((3-methyloxetan-3-yl)oxy)phenyl)ethynyl)-2,7-naphthyridin-3-yl)cyclopropanecarboxamide]	≤ 100	≤ 500	
CNc1ncc(-c2cc3cc(OC)ccc3o2)c2cc(NC(=O)C3CC3)ncc12 [Example 1054]	≤ 100		IC50 [1, 3]: ≤ 500 nM
CNc1ncc(-c2nc3ccc(N4CCO[C@H]([C@@H](C)O)C4)cn3n2)c2cc(NC(=O)C3CC3)ncc12 (single isomer, unassigned) [Example 1045]	≤ 100		IC50 [1, 3]: ≤ 500 nM
CNc1ncc(C#Cc2ncc(OC)cc2C(F)F)c2cc(NC(=O)C3CC3)ncc12 [Example 976, N-(5-((3-(difluoromethyl)-5-methoxypyridin-2-yl)ethynyl)-8-(methylamino)-2,7-naphthyridin-3-yl)cyclopropanecarboxamide]	≤ 100	≤ 500	
CNc1ncc(-c2nc3cc(N4CCOC[C@H]4C)ccc3o2)c2cc(NC(=O)C3CC3)ncc12 [Example 309, (R)-N-(8-(methylamino)-5-(5-(3-methylmorpholino)benzo[d]oxazol-2-yl)-2,7-naphthyridin-3-yl)cyclopropanecarboxamide]		≤ 500	Kd (TYK2 JH2; [4]): ≤ 100 nM
CNc1ncc(/C=C/c2ccc3c(c2)OCC(COC)O3)c2cc(NC(=O)C3CC3)ncc12 (racemic) [Example 789, (E)-N-(5-(2-(2-(methoxymethyl)-2,3-dihydrobenzo[b][1,4]dioxin-6-yl)vinyl)-8-(methylamino)-2,7-naphthyridin-3-yl)cyclopropanecarboxamide]	≤ 100	≤ 500	
CNc1ncc(-c2nc3cc(N4CC(OCCOC)C4)ccc3o2)c2cc(NC(=O)C3CC3)ncc12 [Example 324, N-(5-(5-(3-(2-methoxyethoxy)azetidin-1-yl)benzo[d]oxazol-2-yl)-8-(methylamino)-2,7-naphthyridin-3-yl)cyclopropanecarboxamide]		≤ 500	Kd (TYK2 JH2; [4]): ≤ 100 nM
CNc1ncc(-c2ccc(OC(F)(F)F)cc2)c2cc(NC(=O)C3CC3)ncc12 [Example 110, N-(8-(methylamino)-5-(4-(trifluoromethoxy)phenyl)-2,7-naphthyridin-3-yl)cyclopropanecarboxamide]			Kd (TYK2 JH2; [6]): ≤ 100 nM; IC50 [1, 7]: > 500 nM
CNc1ncc(-c2nc3cc(OC)ccc3o2)c2cc(NC(=O)CC(C)(O)CO)ncc12 (stereo not drawn) [Example 402, 3,4-dihydroxy-N-(5-(5-methoxybenzo[d]oxazol-2-yl)-8-(methylamino)-2,7-naphthyridin-3-yl)-3-methylbutanamide]		> 500	Kd (TYK2 JH2; [4]): ≤ 100 nM
CNc1ncc(-c2nc3cc(N4CCO[C@@H](C)C4)ccc3o2)c2cc(NC(=O)[C@@H]3C[C@@H]3C(F)F)ncc12 (single isomer, unassigned) [Example 415]		≤ 500	Kd (TYK2 JH2; [4]): ≤ 100 nM
CNc1ncc(-c2nc3cc(OC)ccc3o2)c2cc(NC(=O)NC3CC3)ncc12 [Example 1097, 1-cyclopropyl-3-(5-(5-methoxybenzo[d]oxazol-2-yl)-8-(methylamino)-2,7-naphthyridin-3-yl)urea]	≤ 100		IC50 [1, 3]: ≤ 500 nM
